These are literature values, as cited in patent US20160015644A1, “GASTRO-RETENTIVE SUSTAINED-RELEASE ORAL DOSAGE FORM OF A BILE ACID SEQUESTRANT” (IRONWOOD PHARMACEUTICALS, INC., priority 2013, published 2016).

For series [1], the target named is gastric proton pump (Canis lupus familiaris, UniProt P50996). To be noted: conscious, pentagastrin-stimulated fistula dog.
Series [2] concerns the target gastric proton pump (Homo sapiens, UniProt P20648).

Sequence of gastric proton pump (Homo sapiens, UniProt P20648) (P20648 whole entry): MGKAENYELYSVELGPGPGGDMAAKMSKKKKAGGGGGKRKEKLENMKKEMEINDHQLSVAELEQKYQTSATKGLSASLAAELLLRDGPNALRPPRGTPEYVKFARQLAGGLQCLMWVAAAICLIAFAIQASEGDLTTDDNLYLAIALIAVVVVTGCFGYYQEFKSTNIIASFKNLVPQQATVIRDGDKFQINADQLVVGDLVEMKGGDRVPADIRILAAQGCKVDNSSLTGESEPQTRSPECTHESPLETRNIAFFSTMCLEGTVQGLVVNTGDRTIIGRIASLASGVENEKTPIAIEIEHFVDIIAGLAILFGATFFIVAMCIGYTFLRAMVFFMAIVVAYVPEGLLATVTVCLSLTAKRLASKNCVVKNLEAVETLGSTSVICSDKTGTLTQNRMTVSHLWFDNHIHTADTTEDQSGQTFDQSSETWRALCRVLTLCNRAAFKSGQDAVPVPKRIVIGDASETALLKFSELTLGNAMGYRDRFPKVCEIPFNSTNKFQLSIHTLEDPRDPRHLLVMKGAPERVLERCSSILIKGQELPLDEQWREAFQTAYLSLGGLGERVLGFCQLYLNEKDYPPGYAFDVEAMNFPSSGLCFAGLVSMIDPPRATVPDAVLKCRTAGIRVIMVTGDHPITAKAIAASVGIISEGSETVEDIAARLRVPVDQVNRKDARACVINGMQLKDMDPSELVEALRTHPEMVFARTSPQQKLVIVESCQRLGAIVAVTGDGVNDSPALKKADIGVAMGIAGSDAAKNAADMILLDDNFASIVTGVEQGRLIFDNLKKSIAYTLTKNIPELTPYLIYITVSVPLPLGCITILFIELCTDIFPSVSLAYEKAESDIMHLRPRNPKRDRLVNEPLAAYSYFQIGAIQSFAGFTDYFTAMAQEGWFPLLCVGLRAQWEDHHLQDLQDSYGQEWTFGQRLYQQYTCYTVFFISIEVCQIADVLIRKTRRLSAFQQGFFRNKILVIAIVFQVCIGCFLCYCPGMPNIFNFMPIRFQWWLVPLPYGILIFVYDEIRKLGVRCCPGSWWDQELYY
Sequence of gastric proton pump (Homo sapiens, UniProt P20648) (P51164 whole entry partner): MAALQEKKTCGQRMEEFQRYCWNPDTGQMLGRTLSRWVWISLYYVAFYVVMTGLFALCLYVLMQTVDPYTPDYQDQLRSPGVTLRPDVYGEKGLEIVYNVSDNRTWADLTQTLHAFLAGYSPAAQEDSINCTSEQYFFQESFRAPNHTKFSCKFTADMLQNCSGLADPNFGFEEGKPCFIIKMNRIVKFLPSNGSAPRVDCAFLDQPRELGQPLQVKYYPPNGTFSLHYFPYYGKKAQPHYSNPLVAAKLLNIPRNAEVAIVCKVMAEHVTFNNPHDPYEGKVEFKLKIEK
Sequence of gastric proton pump (Canis lupus familiaris, UniProt P50996) (P50996 whole entry): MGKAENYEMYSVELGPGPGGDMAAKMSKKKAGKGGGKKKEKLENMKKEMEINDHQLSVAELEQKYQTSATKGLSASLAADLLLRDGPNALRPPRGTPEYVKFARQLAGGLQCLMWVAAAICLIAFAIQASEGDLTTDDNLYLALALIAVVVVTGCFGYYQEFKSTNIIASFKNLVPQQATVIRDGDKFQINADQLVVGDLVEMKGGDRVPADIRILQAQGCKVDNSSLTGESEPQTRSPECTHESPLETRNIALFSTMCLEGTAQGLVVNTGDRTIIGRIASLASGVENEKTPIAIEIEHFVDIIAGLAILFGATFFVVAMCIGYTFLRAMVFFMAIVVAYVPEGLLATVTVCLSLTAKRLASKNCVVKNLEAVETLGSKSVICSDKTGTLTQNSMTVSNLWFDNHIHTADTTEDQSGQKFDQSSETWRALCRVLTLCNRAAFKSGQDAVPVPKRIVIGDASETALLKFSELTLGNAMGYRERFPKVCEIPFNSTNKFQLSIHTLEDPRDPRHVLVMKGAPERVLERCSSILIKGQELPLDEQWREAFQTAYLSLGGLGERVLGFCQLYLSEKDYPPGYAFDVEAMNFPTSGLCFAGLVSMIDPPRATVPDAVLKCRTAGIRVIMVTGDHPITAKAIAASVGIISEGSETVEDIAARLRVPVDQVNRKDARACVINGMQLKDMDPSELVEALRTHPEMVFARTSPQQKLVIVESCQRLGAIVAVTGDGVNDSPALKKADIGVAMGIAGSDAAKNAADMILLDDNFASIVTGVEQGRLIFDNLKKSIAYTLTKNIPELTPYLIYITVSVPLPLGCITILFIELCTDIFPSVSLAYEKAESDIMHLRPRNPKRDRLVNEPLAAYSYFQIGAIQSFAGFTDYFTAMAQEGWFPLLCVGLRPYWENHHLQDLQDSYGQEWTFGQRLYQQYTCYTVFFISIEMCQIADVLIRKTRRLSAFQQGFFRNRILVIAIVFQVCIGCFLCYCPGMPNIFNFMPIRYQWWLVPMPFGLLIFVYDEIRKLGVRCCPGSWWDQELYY
Sequence of gastric proton pump (Canis lupus familiaris, UniProt P50996) (P33704 whole entry partner): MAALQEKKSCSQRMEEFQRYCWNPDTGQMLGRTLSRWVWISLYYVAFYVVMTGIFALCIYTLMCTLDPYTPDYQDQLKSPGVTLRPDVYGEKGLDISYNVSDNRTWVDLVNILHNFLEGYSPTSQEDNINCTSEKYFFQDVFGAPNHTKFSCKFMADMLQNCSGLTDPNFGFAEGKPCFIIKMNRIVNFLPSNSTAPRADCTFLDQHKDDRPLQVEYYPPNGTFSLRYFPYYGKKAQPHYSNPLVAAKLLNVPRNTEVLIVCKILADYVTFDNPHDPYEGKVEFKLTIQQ

As for `COC(=O)Nc1cccc(C)c1CNc1cccn2c(C)c(C)nc12` [BY841, (8-(2-methoxcarbonylamino-6-methyl-phenylmethylamino)-2,3-dimethyl-imida [1,2-a]-pyridine)], the “intragastric pH” value on gastric proton pump [1] is reported as at most 6; on gastric proton pump [2] (single 50 mg oral dose), “about 6”. Moreover, the “comparison with ranitidine and omeprazole” value at gastric proton pump [1] (elevation of intragastric pH) was “superior to both ranitidine and omeprazole”. Moreover, on gastric proton pump [2] (50 mg or 100 mg twice daily, Day one of treatment), the “effectiveness in comparison with the standard dose of omeprazole” value is on record as “markedly more effective”. For the same molecule, the “potency in comparison with the standard dose of omeprazole” value at gastric proton pump [2] (50 mg or 100 mg twice daily, following repeated daily administration) is on record as “at least as potent as omeprazole”.
